Data as given in publication PMC6120666 (The EMBO Journal, 2018).

Experiments:
[1] = biological target: T1, recombinant RIPK3 (Homo sapiens, UniProt Q9Y572); assay: RIPK3 ADPGlo kinase assay; type: biochemical; details: concentrations up to 1 µM
T1 construct: made in house
Experimental: Cell viability was determined using CellTiter‐Glo assay (Promega). […] Kinase activities were determined using ADPGlo assay (Promega). • Structure of the active conformation of RIPK2 kinase domain in complex with AMP‐PNP (PDB ID: 5AR3). Figure depicts locations of the adenine and deep pockets. […] Key residues discussed in the text are shown as sticks (Lys/Glu Glu‐in bond—bottom left, catalytic Asp residues (Asp146/Asp164)—bottom right, R‐spine—right). P‐loop of CSLP18 structure is shown in yellow. Structured segment of activation segment (AS) observed in active conformation structures is shown in red. • Structure of RIPK2 kinase domain (gray ribbons) in complex with CSLP18 (orange) (PDB ID 6FU5). Sticks are shown for residues in the vicinity of the cavity surrounding the key inhibitor position R1. A 2Fo‐Fc electron density map contoured at 1 sigma is shown for the inhibitor and the residues lining the key region around inhibitor R^1 position. • Molecular docking model of RIPK2 kinase domain in complex with CSLP37 (yellow) based on RIPK2/CSLP18 structure (Fig 3D). […] Data information: Data in (A–C, G) represent the mean ± SEM of three independent experiments. **P < 0.01. Two‐way ANOVA was used to determine statistical significance. […]

[2] = biological target: T2, cIAP1 BIR2 - RIPK2 interaction (Homo sapiens, UniProt O43353); assay: GST-BIR2-cIAP1 pulldown of RIPK2; type: binding; details: U2OS/NOD2 lysates; CSLP37 1.8 μM, CSLP43 2 μM
T2 construct: Pulldown of RIPK2 from U2OS/NOD2 cell lysates with recombinant; endogenous in cells; host or cells: U2OS/NOD2 cell lysate (RIPK2); E. coli BL21 (GST-BIR2-cIAP1)
T2 sequence (O43353 whole entry): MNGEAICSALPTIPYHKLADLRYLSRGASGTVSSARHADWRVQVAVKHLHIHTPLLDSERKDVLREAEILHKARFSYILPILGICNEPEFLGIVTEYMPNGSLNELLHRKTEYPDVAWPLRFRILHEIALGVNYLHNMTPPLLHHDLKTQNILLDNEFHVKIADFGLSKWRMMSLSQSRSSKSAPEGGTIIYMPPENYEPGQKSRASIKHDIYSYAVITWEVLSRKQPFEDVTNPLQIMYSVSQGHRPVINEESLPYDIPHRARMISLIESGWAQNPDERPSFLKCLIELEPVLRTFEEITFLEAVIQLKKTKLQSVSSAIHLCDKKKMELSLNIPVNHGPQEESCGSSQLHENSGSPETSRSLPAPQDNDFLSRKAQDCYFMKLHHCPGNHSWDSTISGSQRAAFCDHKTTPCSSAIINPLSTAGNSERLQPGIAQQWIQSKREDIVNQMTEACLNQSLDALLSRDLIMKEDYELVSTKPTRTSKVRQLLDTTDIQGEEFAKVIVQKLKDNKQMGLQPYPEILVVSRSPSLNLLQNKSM
Experimental: Figure EV4 Inhibition of RIPK2 ubiquitination and cIAP1 binding by CSLP inhibitors • A Coomassie Blue staining of His Trap and gel filtration purified His6‐GST‐XIAP‐BIR2 WT and D214S recombinant proteins at two different concentrations as indicated. • B Pulldown of RIPK2 from U2OS/NOD2 cell lysates with recombinant GST‐BIR2‐cIAP1 in the presence of CSLP inhibitors. […] Purified material and lysates were analyzed by immunoblotting. • C, D Purification of Ub‐conjugates from U2OS/NOD2 cells (C) or THP‐1 cells (D) after treatment with L18‐MDP (200 ng/ml, 1 h) and CSLP compounds as indicated. Purified material and lysates were analyzed by immunoblotting. […]
For co‐immunoprecipitation of HA‐XIAP with RIPK2, transfected and treated cells were lysed in TBS buffer containing 0.5% NP‐40, cOmplete and PhosSTOP inhibitors (Roche) and the lysate was cleared by centrifugation. The lysates were incubated with anti‐HA‐agarose overnight, washed 3× with lysis buffer, and analyzed by immunoblotting. […] Bound material was washed 3× with lysis buffer or PBS, eluted with 15 mM Glutathione in PBS, and analyzed by immunoblotting. […] The bound material was eluted and analyzed as described above. Ubiquitin conjugates were purified from treated cells using GST‐1xUBA^ubq ubiquitin affinity reagent (termed TUBE pulldown) and analyzed by immunoblotting as described (Fiil et al, 2013). […]

T1 sequence (Q9Y572 whole entry, species assumed): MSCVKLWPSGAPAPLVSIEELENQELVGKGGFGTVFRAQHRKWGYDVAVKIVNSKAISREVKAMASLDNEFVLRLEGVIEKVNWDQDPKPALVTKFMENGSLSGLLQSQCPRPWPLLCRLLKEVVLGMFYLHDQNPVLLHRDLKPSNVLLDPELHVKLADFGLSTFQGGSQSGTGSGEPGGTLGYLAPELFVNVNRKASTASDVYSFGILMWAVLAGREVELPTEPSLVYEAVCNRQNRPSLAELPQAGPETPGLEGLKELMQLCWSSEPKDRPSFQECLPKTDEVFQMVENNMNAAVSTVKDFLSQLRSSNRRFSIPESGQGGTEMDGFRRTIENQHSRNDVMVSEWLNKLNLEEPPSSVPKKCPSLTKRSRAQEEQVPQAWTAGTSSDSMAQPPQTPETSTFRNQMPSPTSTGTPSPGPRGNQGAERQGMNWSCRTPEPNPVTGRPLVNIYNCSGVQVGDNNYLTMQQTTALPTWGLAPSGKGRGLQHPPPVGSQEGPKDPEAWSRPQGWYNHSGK

Structure (SMILES)	inhibitory activity against RIPK3 [1]	interaction between GST-BIR2-cIAP1 and RIPK2 in cell lysates [2]
CCCS(=O)(=O)Nc1cc(-c2cc(-c3ccc(N4CCNCC4)cc3)cnc2N)cc(OC)c1OC [CSLP43]	no inhibitory activity	both antagonized
CCCS(=O)(=O)Nc1cc(-c2cc(-c3ccc(N4CCNCC4)cc3)cnc2N)cc(F)c1OC [CSLP37]	no inhibitory activity	both antagonized
